Several values for one entry are separate records, joined by “and”; a condition that tells them apart may be missing. Identical values can stand only once.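 Compound exposure: 48 hours, 5 concentrations, 96-well plates. Abbreviation: GI50, concentration required for 50% inhibition of growth. TGI denotes the concentration required for complete inhibition of growth.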
Key:
Experiment in all cases: DTP human tumour cell line panel, 48 h
COLO 205 colon = test system: COLO 205 colon
U251 CNS = test system: U251 CNS
A498 renal = test system: A498 renal
ACHN renal = test system: ACHN renal
KM12 colon = test system: KM12 colon
MOLT-4 leukemia = test system: MOLT-4 leukemia
SR leukemia = test system: SR leukemia
RPMI-8226 leukemia = test system: RPMI-8226 leukemia
TK-10 renal = test system: TK-10 renal
SF-539 CNS = test system: SF-539 CNS

Structure (SMILES)	GI50 (COLO 205 colon)	TGI (COLO 205 colon)	GI50 (U251 CNS)	TGI (U251 CNS)	GI50 (A498 renal)	TGI (A498 renal)	GI50 (ACHN renal)	TGI (ACHN renal)	GI50 (KM12 colon)	TGI (KM12 colon)	GI50 (MOLT-4 leukemia)	TGI (MOLT-4 leukemia)	GI50 (SR leukemia)	TGI (SR leukemia)	GI50 (RPMI-8226 leukemia)	TGI (RPMI-8226 leukemia)	GI50 (TK-10 renal)	TGI (TK-10 renal)	GI50 (SF-539 CNS)	TGI (SF-539 CNS)
Oc1c(O)c(Cl)c(Cl)c(Cl)c1Cl	12.5 µM	33.7 µM	4.21 µM	86.2 µM	2.67 µM	8.92 µM	5.15 µM	35.5 µM	3.96 µM	19.7 µM	3.51 µM	69.7 µM	2.73 µM	> 100 µM	2.23 µM	7.38 µM	9.42 µM	47.7 µM	3.72 µM	14.7 µM
O=C(Oc1ccccc1)C(Br)C(Br)c1ccccc1 (centres undefined)	1.98 µM	3.83 µM	4.13 µM	15.8 µM	10.5 µM	22.4 µM	2.06 µM	3.79 µM	1.93 µM	3.75 µM	3.09 µM	11.9 µM	1.93 µM	5.5 µM	2.75 µM	7.9 µM	2.19 µM	4.95 µM	4.76 µM	16.4 µM
COc1cccc2nc3c(C(=O)NCCN(C)C)cccc3nc12		28.8 µM		59.1 µM		27.3 µM		> 100 µM		36.9 µM		15.1 µM		> 37.9 µM		> 63.8 µM		61 µM		17.1 µM
Nc1ccc(-c2ccc3ncc4ccc(=O)n(-c5cccc(C(F)(F)F)c5)c4c3c2)cn1	0.0245 µM	0.683 µM	< 0.01 µM	0.948 µM	< 0.01 µM	< 0.01 µM	< 0.01 µM		< 0.0112 µM	1.45 µM	< 0.012 µM	0.402 µM	< 0.01 µM	0.56 µM	< 0.01 µM	0.241 µM	< 0.016 µM	0.275 µM	< 0.01 µM	0.039 µM
CC1=C(C#N)C(/C=C(\Cl)c2ccc(F)cc2)C(C#N)=C(C)N1	> 100 µM	> 100 µM	> 100 µM	> 100 µM	> 100 µM	> 100 µM	> 100 µM	> 100 µM	> 100 µM	> 100 µM	> 100 µM	> 100 µM	> 100 µM	> 100 µM	36.3 µM	> 100 µM	> 100 µM	> 100 µM	> 100 µM	> 100 µM
C/C(O)=C(\N=O)C(=O)NCc1ccccc1		> 100 µM		> 100 µM		> 100 µM		> 100 µM		> 100 µM		> 100 µM		> 100 µM		> 100 µM		> 100 µM		> 100 µM
COc1cc2c3c(c1OC)C(=O)C=C3N(S(=O)(=O)c1ccc(C)cc1)CC2		> 100 µM		> 100 µM		> 100 µM		> 100 µM		> 100 µM		> 100 µM		> 100 µM		> 100 µM		> 100 µM		> 100 µM
COc1ccc2[nH]c(C(=O)OCc3ccc4cccc(O)c4n3)cc2c1	1.29 µM	2.91 µM	1.67 µM	3.15 µM	2.65 µM	5.57 µM	0.69 µM	1.98 µM	1.94 µM	3.9 µM	0.641 µM	2.99 µM	0.251 µM	1.25 µM	0.288 µM	0.874 µM	1.81 µM	3.27 µM	1.27 µM	2.53 µM
COc1ccc2c(c1)O/C(=C\c1cccc(OCC(=O)Nc3nc(C)c(C)s3)c1)C2=O	22.3 µM	> 100 µM	1.62 µM	3.08 µM	7.82 µM	> 68.4 µM	2.28 µM	7 µM	1.02 µM		3.38 µM	> 22.5 µM	0.537 µM	1.37 µM	1.66 µM	3.97 µM	5.41 µM	> 100 µM	1.59 µM	2.98 µM
CCn1c(CSc2nc(-c3ccccc3)c(-c3ccccc3)[nH]2)n[nH]c1=S		> 100 µM		> 100 µM		> 100 µM		> 100 µM		> 100 µM		> 100 µM		> 100 µM		> 100 µM		> 100 µM		> 100 µM
COc1ccc(-c2nsc3c2NC(=O)CC3c2cccc(Cl)c2)cc1 (centres undefined)	0.771 µM	> 42.4 µM	2.33 µM	> 100 µM	1.34 µM	8.1 µM	7.5 µM	> 100 µM	0.743 µM	> 100 µM	4.11 µM	> 100 µM	0.519 µM	> 100 µM	3.6 µM	> 100 µM	3.48 µM	> 100 µM	1.75 µM	6.06 µM
NC(CSC(c1ccccc1)(c1ccccc1)c1ccc(F)cc1)C(=O)O (centres undefined)	0.231 µM	0.667 µM	0.374 µM	> 60.5 µM	0.344 µM	33.8 µM	5.04 µM	> 100 µM	0.405 µM	20.7 µM	1.37 µM	> 46.9 µM	0.253 µM	2.93 µM	0.279 µM	12.7 µM	13.3 µM	> 100 µM	0.285 µM	0.921 µM
Nc1ccccc1C(=O)NC(=O)Nc1ccc(Oc2ncc(Br)cn2)c(Cl)c1		0.421 µM		12.4 µM		1.21 µM		30.8 µM		9.56 µM	0.0511 µM	33.9 µM		1.5 µM		29.6 µM		13.8 µM		0.0204 µM
COc1cc(C2c3cc4c(cc3[C@@H](N(C)c3ccc(N(C)C)cc3)C3COC(=O)C23)OCO4)cc(OC)c1O (some centres undefined)		4.23 µM		1.45 µM		> 100 µM		18.8 µM		21.5 µM		25.8 µM		44.2 µM		> 100 µM		33.1 µM		0.638 µM
N#C/C(=C\c1ccccc1)C(NO)Nc1ccccc1 (centres undefined)		> 100 µM		> 100 µM		> 100 µM		> 100 µM		> 100 µM		> 100 µM		> 100 µM		> 100 µM		> 100 µM		> 100 µM
O=C(N/C(=C/c1cccc([N+](=O)[O-])c1)c1nc2ccc(Cl)cc2[nH]1)c1ccccc1		> 100 µM		25.4 µM		66.2 µM		48.9 µM		31.1 µM		49 µM		41.3 µM		69.7 µM		62.1 µM		12.5 µM

Structure (SMILES)	GI50 (COLO 205 colon)	TGI (COLO 205 colon)	GI50 (U251 CNS)	TGI (U251 CNS)	GI50 (A498 renal)	TGI (A498 renal)	GI50 (ACHN renal)	TGI (ACHN renal)	GI50 (KM12 colon)	TGI (KM12 colon)	GI50 (MOLT-4 leukemia)	TGI (MOLT-4 leukemia)	GI50 (SR leukemia)	TGI (SR leukemia)	GI50 (RPMI-8226 leukemia)	TGI (RPMI-8226 leukemia)	GI50 (TK-10 renal)	TGI (TK-10 renal)	GI50 (SF-539 CNS)	TGI (SF-539 CNS)
Cc1cccc(Nc2cc(Cl)nc(SCC(=O)O)n2)c1C		> 100 µM		> 100 µM		> 100 µM		> 100 µM		> 100 µM		> 100 µM		> 100 µM		> 100 µM		> 100 µM		> 100 µM
O=C(/C=C\n1cnc(-c2cc(C(F)(F)F)cc(C(F)(F)F)c2)n1)N1CC(F)(F)C1	0.351 µM	4.14 µM	0.248 µM	3.66 µM	0.0375 µM	0.452 µM	1.3 µM	> 25 µM	2.41 µM	> 25 µM	0.197 µM	0.944 µM	0.151 µM	> 25 µM	0.408 µM	17.9 µM	0.645 µM	3.7 µM	0.161 µM	1.58 µM
COc1ccc(-c2nn3ncccc3c2-c2ccnc(Nc3ccc4c(c3)OCCO4)n2)cc1	13.1 µM	> 25 µM	14.3 µM	> 25 µM	3.69 µM	22.1 µM	2.86 µM	> 25 µM	5.99 µM	> 25 µM	14.2 µM	> 25 µM	16.1 µM	> 25 µM	4.69 µM	> 20.7 µM	4.54 µM	18.5 µM	13 µM	> 25 µM
CC(C)=C1CCC(CN2CCOCC2)C1=O (centres undefined)		16.9 µM		48.9 µM		52.3 µM		23 µM		> 51.4 µM		5.54 µM		11.2 µM		12.5 µM		19 µM		31.9 µM
S=C(CSc1ccccc1)Nc1cccc2ccccc12		32 µM		> 100 µM		71 µM		> 100 µM		> 100 µM		63.2 µM		68.8 µM		> 100 µM		> 100 µM		76.4 µM
NCCOc1ncccc1/C=C1\c2ccccc2-c2ccc([N+](=O)[O-])cc21	0.137 µM	0.343 µM	0.0269 µM	0.303 µM	0.158 µM	0.578 µM	0.0235 µM	0.119 µM	0.11 µM	0.546 µM	< 0.01 µM	0.0746 µM	< 0.01 µM	1.1 µM	0.0383 µM	0.317 µM	0.126 µM	0.282 µM	0.135 µM	0.362 µM
CCOc1ccc(N=Cc2ccnc3ccccc23)cc1		> 100 µM		> 68.1 µM		> 100 µM		> 100 µM		> 89.9 µM		> 100 µM		6.76 µM		35.1 µM		> 100 µM		85.9 µM
CN(C)CCCCCNc1c2ccccc2nc2cccc([N+](=O)[O-])c12	0.00591 µM	0.00173 µM	0.0065 µM	0.0251 µM		0.00758 µM	0.00374 µM	0.00325 µM		0.0725 µM	0.00627 µM	> 0.1 µM	0.000559 µM	0.00697 µM and > 0.0278 µM		> 0.1 µM and 0.0188 µM		0.0207 µM		0.00979 µM and 0.0157 µM
CCc1nc2cc(/C=C/C(=O)NO)ccc2c(=O)n1CCc1ccc(OC)cc1	1.94 µM	5.13 µM	1.99 µM	4.87 µM	1.17 µM	3.39 µM	1.85 µM	4.36 µM	3.42 µM	> 100 µM	2.5 µM	> 100 µM	1.94 µM	> 100 µM	2.38 µM	56.1 µM	1.6 µM	5.79 µM	1.91 µM	6.29 µM
CCn1c(=N)sc2nc3ccccc3n2c1=O		> 100 µM		> 100 µM		> 100 µM		> 100 µM		> 100 µM		> 100 µM		> 100 µM		> 100 µM		> 100 µM		> 100 µM
CC1(C)C(=O)C(=Cc2ccco2)C1=O		> 100 µM		> 100 µM		> 100 µM		> 100 µM		> 100 µM		> 100 µM		> 100 µM		> 100 µM		> 100 µM		> 100 µM
O=C(Nc1ccc2c(c1)OCCO2)C(=O)c1c[nH]c2ccccc12	2.72 µM	> 100 µM	1.63 µM	15.9 µM	0.535 µM	7.08 µM	5.19 µM	> 100 µM	0.469 µM	> 100 µM	0.618 µM	> 100 µM	0.268 µM	> 46.7 µM	2.34 µM	> 100 µM	6.75 µM	31.4 µM	1.5 µM	5.32 µM
COC(=O)/C(=C/c1ccc(OC)cc1)C(C(=O)O)=C1CCCCC1		> 100 µM		> 100 µM		> 100 µM		> 100 µM		> 100 µM		> 100 µM		> 100 µM		> 100 µM		> 100 µM		> 100 µM
C=C(CN1c2ccccc2Sc2ccccc21)c1ccc(C(=O)Nc2ccccc2N)cc1	34.7 µM	> 100 µM	> 50.3 µM	> 100 µM	> 100 µM	> 100 µM	> 71.7 µM	> 100 µM	5.84 µM	> 100 µM	0.276 µM	> 65.2 µM	2.32 µM	> 59.5 µM	0.597 µM	> 25.4 µM	23.9 µM	> 100 µM	> 26 µM	> 100 µM
CC[C@@H](O)C[C@H]1CCC[C@@]2(C[C@@H]3OC(=O)/C=C/[C@@](C)(O)[C@@H](O)[C@H](C)[C@@H](O)[C@H](OC4CCC(N(C)C)C(C)O4)[C@@H](O)[C@](C)(O)CCCCC/C=C/[C@@H]4CC(C)(C)O[C@@]4(O)C[C@H](O2)[C@H]3C)O1 (some centres undefined)		14.5 µM		36.8 µM		57.4 µM		17.6 µM		24.4 µM		23.3 µM		9.42 µM		25 µM		21.6 µM		23.3 µM
COC(=O)CCC(=O)N1CC1C (centres undefined)		> 100 µM		> 100 µM		> 100 µM		> 100 µM		> 100 µM		> 100 µM		> 100 µM		> 100 µM		> 100 µM		> 100 µM
